In patent publication US20130102009A1, “SIRTUIN ACTIVATORS AND ACTIVATION ASSAYS” (priority 2010, published 2013):
Values joined by “and” are separate entries in the source; they are usually repeats but may differ in a detail not shown here. Identical values can stand only once. Counter-ions that a name gives are not always drawn.

Assays:
SIRT1 [1] = molecular target: T1, SIRT1 (Homo sapiens, UniProt Q96EB6); test: Mass spectrometry based SIRT1 activation assay (TAMRA/5TMR-labeled 20mer peptide); format: biochemical; conditions: for Emax: 25 min, percent maximum fold activation of SIRT1, read-out: % FOLD ACT.; for EC1.5 uM: concentration that results in 150% activation of SIRT1
T1 sequence (Q96EB6 1-747): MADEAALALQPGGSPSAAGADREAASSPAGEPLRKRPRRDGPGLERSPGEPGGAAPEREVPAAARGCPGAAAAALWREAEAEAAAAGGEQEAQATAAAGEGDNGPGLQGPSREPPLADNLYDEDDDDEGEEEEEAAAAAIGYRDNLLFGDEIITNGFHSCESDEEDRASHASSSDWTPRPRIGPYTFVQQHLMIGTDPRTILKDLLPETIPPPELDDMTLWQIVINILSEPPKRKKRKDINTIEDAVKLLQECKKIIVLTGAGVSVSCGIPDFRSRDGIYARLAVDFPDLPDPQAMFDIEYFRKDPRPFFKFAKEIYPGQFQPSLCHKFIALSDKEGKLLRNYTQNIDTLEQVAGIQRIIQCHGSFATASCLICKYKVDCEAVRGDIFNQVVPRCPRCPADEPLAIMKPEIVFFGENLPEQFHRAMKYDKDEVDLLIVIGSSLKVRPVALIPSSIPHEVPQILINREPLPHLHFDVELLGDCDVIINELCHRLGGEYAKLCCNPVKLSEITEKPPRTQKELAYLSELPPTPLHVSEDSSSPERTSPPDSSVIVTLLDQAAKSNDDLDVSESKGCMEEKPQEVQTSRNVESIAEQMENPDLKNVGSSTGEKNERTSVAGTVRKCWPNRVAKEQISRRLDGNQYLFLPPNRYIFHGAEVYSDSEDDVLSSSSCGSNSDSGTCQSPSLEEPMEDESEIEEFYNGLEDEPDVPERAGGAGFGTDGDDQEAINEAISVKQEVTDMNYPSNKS
Source text: A mass spectrometry based assay was used to identify modulators of SIRTI activity. The mass spectrometry based assay utilizes a peptide having 20 amino acid residues as follows: Ac-EE-K(biotin)-GQSTSSHSK(Ac)NleSTEG-K(5TMR)-EE-NH2 (SEQ ID NO: 1) wherein K(Ac) is an acetylated lysine residue and Nle is a norleucine. The peptide is labeled with the fluorophore 5TMR (excitation 540 nrnIemission 580 nm) at the C-terminus. The sequence of the peptide substrate is based on p53 with several modifications. In addition, the methionine residue naturally present in the sequence was replaced with the norleucine because the methionine may be susceptible to oxidation during synthesis and purification.
The mass spectrometry assay is conducted as follows: 0.5 J-1M peptide substrate and 120 μM βNAD^+ is incubated with 10 nM SIRT1 for 25 minutes at 25° C. in a reaction buffer (50 mM Tris-acetate pH 8, 137 mM NaCl, 2.7 mM KCl, 1 mM MgClz, 5 mM DTT, 0.05% BSA). Test compounds may be added to the reaction as described above. The SirTI gene is cloned into a T7-promoter containing vector and transformed into BL21 (DE3). After the 25 minute incubation with SIRT1, 10 μL of 10% formic acid is added to stop the reaction. Reactions are sealed and frozen for later mass spec analysis. Determination of the mass of the substrate peptide allows for precise determination of the degree of acetylation (i.e. starting material) as compared to deacetylated peptide (product).
A control for inhibition of sirtuin activity is conducted by adding 1 μL of 500 mM nicotinamide as a negative control at the start of the reaction (e.g., permits determination of maximum sirtuin inhibition). A control for activation of sirtuin activity is conducted using 10 nM of sirtuin protein, with 1 μL of DMSO in place of compound, to determine the amount of deacetylation of the substrate at a given timepoint within the linear range of the assay. This timepoint is the same as that used for test compounds and, within the linear range, the endpoint represents a change in velocity.
For the above assay, SIRTI protein was expressed and purified as follows. The SirT1 gene was cloned into a T7-promoter containing vector and transformed into BL21(DE3). The protein was expressed by induction with 1 mM IPTG as an N-terminal His-tag fusion protein at 18° C. overnight and harvested at 30,000×g. Cells were lysed with lysozyme in lysis buffer (50 mM Tris-HCl, 2 mM Tris[2-carboxyethyl]phosphine (TCEP), 10 μM ZnCl2, 200 mM NaCl) and further treated with sonication for 10 min for complete lysis. The protein was purified over a Ni-NTA column (Amersham) and fractions containing pure protein were pooled, concentrated and run over a sizing column (Sephadex S200 26/60 global). The peak containing soluble protein was collected and run on an Ion-exchange column (MonoQ). Gradient elution (200 mM-500 mM NaCl) yielded pure 20 protein. This protein was concentrated and dialyzed against dialysis buffer (20 mM TrisHCl, 2 mM TCEP) overnight. The protein was aliquoted and frozen at −80° C. until further use.
Sirtuin modulating compounds that activated SIRT1 were identified using the assay described above and are shown below in Table 4. The EC1.5 values represent the concentration of test compounds that result in 150% activation of SIRT1. The EC1.5 values for the activating compounds are represented by A (EC1.5≦1 μM), B (EC1.5>1 μM). The percent maximum fold activation is represented by A (Fold activation ≧200%) or B (Fold Activation <200%).

SIRT1 [2] = molecular target: T1, SIRT1; test: Mass spectroscopic kinetic assay of SIRT1-catalyzed deacetylation of 20mer peptides; format: biochemical; conditions: for Effect on the deacetylation of des(biotin,TAMRA)-peptide: substrate des(biotin,TAMRA)-peptide; for RVmax for activation of the deacetylation of desTAMRA-peptide / EC50: substrate desTAMRA-peptide, fit to eq (1); for EC50: read-out: EC50 for activation of the deacetylation of desTAMRA-peptide; for Ki,app for inhibition of the deacetylation of p53-20 mer / Ki: substrate p53-20 mer, RV=1/(1+([X]o/Ki,app)); for Ki: read-out: Ki,app for inhibition of the deacetylation of p53-20 mer
Description: Bovine glutamate dehydrogenase (GDH), α-ketoglutarate, NADH and NAD^+ were from Sigma Chemical Company. […] The nicotinamidase PNC1 was prepared as described by Denu and colleagues (Smith et al. (2009) Anal Biochem 394, 101-109). Our collection of approximately 5,000 SIRT1 activators was screened using the BioTrove mass spectrometry system, as previously described (Milne et al. (2007) Nature 450, 712-716). […] Compounds were present at 10 μM, and the assays were conducted in a pH 7.4 buffer containing 150 mM Tris, 5 mM DTT, 1% DMSO, and 0.025% BSA. To determine the interaction of STACs with SIRT1 two kinetic methods were employed. […] (2007) Nature 450, 712-716). The other, used with peptides of general structure […], used a continuous, enzyme-coupled method reported previously (Smith et al. (2009) Anal Biochem 394, 101-109), in which the SRT1 product nicotinamide is first converted into nicotinic acid and ammonia by the action of PNC1, and the ammonia then used by GDH to convert α-ketoglutarate into glutamate. This reaction occurs with oxidation of NADH to NAD^+ which is accompanied by a change in absorbance at 340 nm (Δε340=-6,200 M^-1 cm^-1). Activator titrations were plotted as relative velocity (i.e., the ratio of vx, velocity in the presence of activator X, to vo, velocity in the absence of activator) vs. [X]o, initial concentration of activator, and fit by nonlinear least-squares to the mechanism-independent expression for enzyme activation of […] the maximum relative velocity (i.e., vx/vo at infinite [X]o) and EC50 is the activator concentration at which vx/vo=(RVmax-1)/2. EC50 is a function of the kinetic mechanisms of both catalysis and activation, and the concentrations of substrates.

| SMILES | Emax (SIRT1 [1]) [%] | EC1.5 uM (SIRT1 [1]) | also measured |
| --- | --- | --- | --- |
| O=C(Nc1ccccc1-c1cn2c(CN3CCNCC3)csc2n1)c1cccc(-c2ccccc2)c1 [Compound 1, N-(2-(3-(piperazin-1-ylmethyl)imidazo[2,1-b]thiazol-6-yl)phenyl)biphenyl-3-carboxamide] | ≥ 200 | A (EC1.5≦1 μM) |  |
| O=C(Nc1ccccc1-c1cn2c(CN3CCNCC3)csc2n1)c1nc2ncccc2o1 [Compound 3, N-(2-(3-(piperazin-1-ylmethyl)imidazo[2,1-b]thiazol-6-yl)phenyl)oxazolo[4,5-b]pyridine-2-carboxamide] | < 200 | B (EC1.5>1 μM) |  |
| O=C(Nc1ccccc1-c1nc2cc(CN3CC[C@@H](F)C3)cnc2s1)c1cccc(OC2CN3CCC2CC3)c1 (stereo partly drawn) [Compound 5, N-(2-(6-(((R)-3-fluoropyrrolidin-1-yl)methyl)thiazolo[5,4-b]pyridin-2-yl)phenyl)-3-(quinuclidin-3-yloxy)benzamide] | ≥ 200 | B (EC1.5>1 μM) |  |
| CC(C)CNCC1CC1C(=O)Nc1ccccc1-c1nc2cc(CN3CCNCC3)cnc2s1 (stereo not drawn) [Compound 6] |  | B (EC1.5>1 μM) |  |
| COc1ccc(C(=O)Nc2ccccc2-c2nc3cc(COC4CCNCC4)cnc3s2)cc1OC [Compound 8, 3,4-dimethoxy-N-(2-(6-((piperidin-4-yloxy)methyl)thiazolo[5,4-b]pyridin-2-yl)phenyl)benzamide] | ≥ 200 | A (EC1.5≦1 μM) |  |
| CN(C)CCNCc1cccc(C(=O)Nc2ccccc2-c2nc3cc(COC4CCNCC4)cnc3s2)c1 [Compound 9] | < 200 | B (EC1.5>1 μM) |  |
| CC(C)Cc1nc(NC2CCNCC2)cc(C(=O)Nc2ccccc2-c2nc3cc(COC4CCNCC4)cnc3s2)n1 [Compound 11, 2-isobutyl-6-(piperidin-4-ylamino)-N-(2-(6-((piperidin-4-yloxy)methyl)thiazolo[5,4-b]pyridin-2-yl)phenyl)pyrimidine-4-carboxamide] | ≥ 200 | A (EC1.5≦1 μM) | Effect on the deacetylation of des(biotin,TAMRA)-peptide (SIRT1 [2]): none activate; RVmax for activation of the deacetylation of desTAMRA-peptide (SIRT1 [2]): ~2.3; RVmax for activation of the deacetylation of desTAMRA-peptide (SIRT1 [2]; listed as 23): 2.8±0.2; EC50 (SIRT1 [2]): ~2 µM and 2.2 µM; Ki,app for inhibition of the deacetylation of p53-20 mer (SIRT1 [2]): inhibit; Ki (SIRT1 [2]): 10 ± 1 µM |
| CCCCc1nc(NCCNC)cc(C(=O)Nc2ccccc2-c2nc3cc(COC4CCNCC4)cnc3s2)n1 [Compound 12, 2-butyl-6-(2-(methylamino)ethylamino)-N-(2-(6-((piperidin-4-yloxy)methyl)thiazolo[5,4-b]pyridin-2-yl)phenyl)pyrimidine-4-carboxamide] | ≥ 200 | A (EC1.5≦1 μM) | Effect on the deacetylation of des(biotin,TAMRA)-peptide (SIRT1 [2]): none activate; RVmax for activation of the deacetylation of desTAMRA-peptide (SIRT1 [2]): ~2.3; RVmax for activation of the deacetylation of desTAMRA-peptide (SIRT1 [2]; listed as 24): 2.1 ± 0.1; EC50 (SIRT1 [2]): ~2 µM and 1.5 µM; Ki,app for inhibition of the deacetylation of p53-20 mer (SIRT1 [2]): inhibit; Ki (SIRT1 [2]): 9 ± 3 µM |
| CCCNc1cc(-c2nc3c(NC(=O)c4cccc(C5CCNC5)c4)cccc3[nH]2)ccn1 (stereo not drawn) [Compound 15, N-(2-(2-(propylamino)pyridin-4-yl)-1H-benzo[d]imidazol-4-yl)-3-(pyrrolidin-3-yl)benzamide hydrochloride] | ≥ 200 | A (EC1.5≦1 μM) |  |
| O=C(Nc1cccc(COC2CCNCC2)c1)c1cccc2[nH]c(-c3ccnc(N4CCOCC4)c3)nc12 [Compound 17, 2-(2-morpholinopyridin-4-yl)-N-(3-((piperidin-4-yloxy)methyl)phenyl)-1H-benzo[d]imidazole-4-carboxamide] | ≥ 200 | A (EC1.5≦1 μM) |  |
| CN(C)CCCNc1ccc(-c2nc3cc(NC(=O)c4cccc(CN5CCNCC5)c4)ccc3[nH]2)cn1 [Compound 18] | < 200 | B (EC1.5>1 μM) |  |
| COc1ccc2nc(NC(=O)c3cccc4[nH]c(-c5ccc(N6CCNCC6)nc5)nc34)sc2c1 [Compound 19, N-(6-methoxybenzo[d]thiazol-2-yl)-2-(6-(piperazin-1-yl)pyridin-3-yl)-1H-benzo[d]imidazole-4-carboxamide] | ≥ 200 | A (EC1.5≦1 μM) |  |
| N#Cc1ccc(NC(=O)c2cccc3[nH]c(-c4ccc(N5CCNCC5)nc4)nc23)cc1C(F)(F)F [Compound 20, N-(4-cyano-3-(trifluoromethyl)phenyl)-2-(6-(piperazin-1-yl)pyridin-3-yl)-1H-benzo[d]imidazole-4-carboxamide] | ≥ 200 | A (EC1.5≦1 μM) |  |
| CCCCN(CCCC)c1cc(-c2nc3c(C(=O)Nc4cccc(COC5CCNCC5)c4)cccc3[nH]2)ccn1 [Compound 21] | ≥ 200 | A (EC1.5≦1 μM) |  |
